According to ChEMBL document CHEMBL5108010, “Structure-activity relationship studies on divalent naphthalene diimide G quadruplex ligands with anticancer and antiparasitic activity” (Bioorg Med Chem, 2022):

System: not listed separately
Assay: Cytotoxicity against human MRC5 cells assessed as inhibition of cell proliferation incubated for 72 hrs by alamar blue assay
Type: toxicity, cell-based
Conditions: human, MRC5 cells

`CC(CN1C(=O)c2ccc3c4c(ccc(c24)C1=O)C(=O)N(CC(C)N1CCN(C)CC1)C3=O)N1CCN(C)CC1` (centres undefined) and `CN1CCN(c2cccc(N3C(=O)c4ccc5c6c(ccc(c46)C3=O)C(=O)N(c3cccc(N4CCN(C)CC4)c3)C5=O)c2)CC1` are within 1.5-fold of each other in IC50 at 72 h: 1.4 µM for the first, 1.48 µM for the second.

Going from `C[n+]1cccc(N2C(=O)c3ccc4c5c(ccc(c35)C2=O)C(=O)N(c2ccc[n+](C)c2)C4=O)c1` to `C[n+]1cccc2c(N3C(=O)c4ccc5c6c(ccc(c46)C3=O)C(=O)N(c3cccc4c3ccc[n+]4C)C5=O)cccc21`, the IC50 at 72 h falls from 18.2 µM to 0.28 µM (65-fold).

Compound `O=C1c2ccc3c4c(ccc(c24)C(=O)N1CCCN1CCOCC1)C(=O)N(CCCN1CCOCC1)C3=O` has an IC50 at 72 h of 11.9 µM.

System: not listed separately
Assay: Selectivity index, ratio of IC50 for cytotoxicity against human MRC5 cells to IC50 for antitrypanosomal activity against Trypanosoma brucei bloodstream form
Type: toxicity, cell-based
Conditions: MRC5 cells versus Trypanosoma brucei bloodstream form, read-out: Ratio IC50

First: CC(CN1C(=O)c2ccc3c4c(ccc(c24)C1=O)C(=O)N(CC(C)N1CCN(C)CC1)C3=O)N1CCN(C)CC1 (centres undefined)
Second: CN1CCN(c2cccc(N3C(=O)c4ccc5c6c(ccc(c46)C3=O)C(=O)N(c3cccc(N4CCN(C)CC4)c3)C5=O)c2)CC1
The selectivity ratio of the first is higher: 8.2 for the first, 7.91 for the second.

First: C[n+]1cccc(N2C(=O)c3ccc4c5c(ccc(c35)C2=O)C(=O)N(c2ccc[n+](C)c2)C4=O)c1
Second: C[n+]1cccc2c(N3C(=O)c4ccc5c6c(ccc(c46)C3=O)C(=O)N(c3cccc4c3ccc[n+]4C)C5=O)cccc21
The selectivity ratio of the first is lower: 0.41 for the first, 0.79 for the second.

Compound `O=C1c2ccc3c4c(ccc(c24)C(=O)N1CCCN1CCOCC1)C(=O)N(CCCN1CCOCC1)C3=O` has a selectivity ratio of 20.8.

System: Quadruplex DNA
Assay: Binding affinity to G-quadruplex telomeric DNA F21T (5'-duplex GGG TTAGGG TTAGGG TTAGGG-3') (unknown origin) assessed as stabilization by measuring change in melting temperature at 10 uM in potassium buffer by FRET melting assay
Type: nucleic-acid assay
Conditions: not given

First: CC(CN1C(=O)c2ccc3c4c(ccc(c24)C1=O)C(=O)N(CC(C)N1CCN(C)CC1)C3=O)N1CCN(C)CC1 (centres undefined)
Second: CN1CCN(c2cccc(N3C(=O)c4ccc5c6c(ccc(c46)C3=O)C(=O)N(c3cccc(N4CCN(C)CC4)c3)C5=O)c2)CC1
The ΔTm of the first is higher: 20.5 °C for the first, 6.4 °C for the second.

Going from `C[n+]1cccc(N2C(=O)c3ccc4c5c(ccc(c35)C2=O)C(=O)N(c2ccc[n+](C)c2)C4=O)c1` to `C[n+]1cccc2c(N3C(=O)c4ccc5c6c(ccc(c46)C3=O)C(=O)N(c3cccc4c3ccc[n+]4C)C5=O)cccc21`, the ΔTm rises from 0.5 °C to 2 °C.

Compound `O=C1c2ccc3c4c(ccc(c24)C(=O)N1CCCN1CCOCC1)C(=O)N(CCCN1CCOCC1)C3=O` has a ΔTm of 7 °C.

System: Trypanosoma brucei
Assay: Antitrypanosomal activity against Trypanosoma brucei bloodstream form assessed as inhibition of parasite growth incubated for 72 hrs by alamar blue assay
Type: functional, organism-based
Conditions: Trypanosoma brucei, 72 h

`CC(CN1C(=O)c2ccc3c4c(ccc(c24)C1=O)C(=O)N(CC(C)N1CCN(C)CC1)C3=O)N1CCN(C)CC1` (centres undefined) and `CN1CCN(c2cccc(N3C(=O)c4ccc5c6c(ccc(c46)C3=O)C(=O)N(c3cccc(N4CCN(C)CC4)c3)C5=O)c2)CC1` are within 1.5-fold of each other in IC50: 0.17 µM for the first, 0.18 µM for the second.

Going from `C[n+]1cccc(N2C(=O)c3ccc4c5c(ccc(c35)C2=O)C(=O)N(c2ccc[n+](C)c2)C4=O)c1` to `C[n+]1cccc2c(N3C(=O)c4ccc5c6c(ccc(c46)C3=O)C(=O)N(c3cccc4c3ccc[n+]4C)C5=O)cccc21`, the IC50 falls from 44.1 µM to 0.35 µM (130-fold).

`O=C1c2ccc3c4c(ccc(c24)C(=O)N1CCCN1CCOCC1)C(=O)N(CCCN1CCOCC1)C3=O` gave an IC50 of 0.57 µM.

System: Quadruplex DNA
Assay: Binding affinity to G-quadruplex telomeric DNA F21T (5'-duplex GGG TTAGGG TTAGGG TTAGGG-3') (unknown origin) assessed as stabilization by measuring change in melting temperature at 10 uM in sodium buffer by FRET melting assay
Type: nucleic-acid assay
Conditions: not given

First: CC(CN1C(=O)c2ccc3c4c(ccc(c24)C1=O)C(=O)N(CC(C)N1CCN(C)CC1)C3=O)N1CCN(C)CC1 (centres undefined)
Second: CN1CCN(c2cccc(N3C(=O)c4ccc5c6c(ccc(c46)C3=O)C(=O)N(c3cccc(N4CCN(C)CC4)c3)C5=O)c2)CC1
The ΔTm of the first is higher: 9.2 °C for the first, 5.8 °C for the second.

Going from `C[n+]1cccc(N2C(=O)c3ccc4c5c(ccc(c35)C2=O)C(=O)N(c2ccc[n+](C)c2)C4=O)c1` to `C[n+]1cccc2c(N3C(=O)c4ccc5c6c(ccc(c46)C3=O)C(=O)N(c3cccc4c3ccc[n+]4C)C5=O)cccc21`, the ΔTm rises from 1.3 °C to 1.4 °C.

`O=C1c2ccc3c4c(ccc(c24)C(=O)N1CCCN1CCOCC1)C(=O)N(CCCN1CCOCC1)C3=O` showed a ΔTm of -7 °C.

System: Leishmania major
Assay: Antileishmanial activity against Leishmania major (MHOM/IL/80/Friedlin) promastigotes assessed as inhibition of parasite growth incubated for 72 hrs by MTT assay
Type: functional, organism-based
Conditions: Leishmania major, MHOM/IL/80/Friedlin, 72 h

Compared with `CC(CN1C(=O)c2ccc3c4c(ccc(c24)C1=O)C(=O)N(CC(C)N1CCN(C)CC1)C3=O)N1CCN(C)CC1` (centres undefined), `CN1CCN(c2cccc(N3C(=O)c4ccc5c6c(ccc(c46)C3=O)C(=O)N(c3cccc(N4CCN(C)CC4)c3)C5=O)c2)CC1` is 24-fold lower in IC50: 8.08 µM for the first, 0.33 µM for the second.

Going from `C[n+]1cccc(N2C(=O)c3ccc4c5c(ccc(c35)C2=O)C(=O)N(c2ccc[n+](C)c2)C4=O)c1` to `C[n+]1cccc2c(N3C(=O)c4ccc5c6c(ccc(c46)C3=O)C(=O)N(c3cccc4c3ccc[n+]4C)C5=O)cccc21`, the IC50 falls from over 63.9 µM to 1.86 µM.

`O=C1c2ccc3c4c(ccc(c24)C(=O)N1CCCN1CCOCC1)C(=O)N(CCCN1CCOCC1)C3=O` gave an IC50 of 4.32 µM.

System: not listed separately
Assay: Selectivity index, ratio of IC50 for cytotoxicity against human MRC5 cells to IC50 for cytotoxicity against human HeLa cells
Type: toxicity, cell-based
Conditions: MRC5 cells versus HeLa cells, read-out: Ratio IC50

Going from `CC(CN1C(=O)c2ccc3c4c(ccc(c24)C1=O)C(=O)N(CC(C)N1CCN(C)CC1)C3=O)N1CCN(C)CC1` (centres undefined) to `CN1CCN(c2cccc(N3C(=O)c4ccc5c6c(ccc(c46)C3=O)C(=O)N(c3cccc(N4CCN(C)CC4)c3)C5=O)c2)CC1`, the selectivity ratio rises from 0.83 to 3.09.

Compared with `O=C1c2ccc3c4c(ccc(c24)C(=O)N1CCCN1CCOCC1)C(=O)N(CCCN1CCOCC1)C3=O`, `C[n+]1cccc2c(N3C(=O)c4ccc5c6c(ccc(c46)C3=O)C(=O)N(c3cccc4c3ccc[n+]4C)C5=O)cccc21` is lower in selectivity ratio: 3.81 for the first, 0.011 for the second.

System: not listed separately
Assay: Binding affinity to hairpin duplex DNA F10T (unknown origin) assessed as stabilization by measuring change in melting temperature at 10 uM in potassium buffer by FRET melting assay
Conditions: not given

Compared with `CC(CN1C(=O)c2ccc3c4c(ccc(c24)C1=O)C(=O)N(CC(C)N1CCN(C)CC1)C3=O)N1CCN(C)CC1` (centres undefined), `CN1CCN(c2cccc(N3C(=O)c4ccc5c6c(ccc(c46)C3=O)C(=O)N(c3cccc(N4CCN(C)CC4)c3)C5=O)c2)CC1` is lower in ΔTm: 1.7 °C for the first, 0.1 °C for the second.

Compared with `C[n+]1cccc(N2C(=O)c3ccc4c5c(ccc(c35)C2=O)C(=O)N(c2ccc[n+](C)c2)C4=O)c1`, `C[n+]1cccc2c(N3C(=O)c4ccc5c6c(ccc(c46)C3=O)C(=O)N(c3cccc4c3ccc[n+]4C)C5=O)cccc21` is higher in ΔTm: 0 °C for the first, 0.5 °C for the second.

`O=C1c2ccc3c4c(ccc(c24)C(=O)N1CCCN1CCOCC1)C(=O)N(CCCN1CCOCC1)C3=O` showed a ΔTm of 1 °C.

System: HeLa
Assay: Cytotoxicity against human HeLa cells assessed as inhibition of cell proliferation incubated for 72 hrs by alamar blue assay
Type: functional, cell-based
Conditions: Homo sapiens, HeLa, 72 h

Compared with `CC(CN1C(=O)c2ccc3c4c(ccc(c24)C1=O)C(=O)N(CC(C)N1CCN(C)CC1)C3=O)N1CCN(C)CC1` (centres undefined), `CN1CCN(c2cccc(N3C(=O)c4ccc5c6c(ccc(c46)C3=O)C(=O)N(c3cccc(N4CCN(C)CC4)c3)C5=O)c2)CC1` is 3.6-fold lower in IC50: 1.68 µM for the first, 0.47 µM for the second.

Compared with `C[n+]1cccc(N2C(=O)c3ccc4c5c(ccc(c35)C2=O)C(=O)N(c2ccc[n+](C)c2)C4=O)c1`, `C[n+]1cccc2c(N3C(=O)c4ccc5c6c(ccc(c46)C3=O)C(=O)N(c3cccc4c3ccc[n+]4C)C5=O)cccc21` is lower in IC50: over 63.9 µM for the first, 24.2 µM for the second.

Work on `O=C1c2ccc3c4c(ccc(c24)C(=O)N1CCCN1CCOCC1)C(=O)N(CCCN1CCOCC1)C3=O` yielded an IC50 of 5.83 µM.

System: Quadruplex DNA
Assay: Binding affinity to G-quadruplex telomeric DNA FMycT (5'-duplex GGG TTAGGG TTAGGG TTAGGG-3') (unknown origin) assessed as stabilization by measuring change in melting temperature at 10 uM in potassium buffer by FRET melting assay
Type: nucleic-acid assay
Conditions: not given

First: CC(CN1C(=O)c2ccc3c4c(ccc(c24)C1=O)C(=O)N(CC(C)N1CCN(C)CC1)C3=O)N1CCN(C)CC1 (centres undefined)
Second: CN1CCN(c2cccc(N3C(=O)c4ccc5c6c(ccc(c46)C3=O)C(=O)N(c3cccc(N4CCN(C)CC4)c3)C5=O)c2)CC1
The ΔTm of the first is higher: 13.2 °C for the first, 8 °C for the second.

Compared with `C[n+]1cccc(N2C(=O)c3ccc4c5c(ccc(c35)C2=O)C(=O)N(c2ccc[n+](C)c2)C4=O)c1`, `C[n+]1cccc2c(N3C(=O)c4ccc5c6c(ccc(c46)C3=O)C(=O)N(c3cccc4c3ccc[n+]4C)C5=O)cccc21` is higher in ΔTm: -1.6 °C for the first, 0.6 °C for the second.

`O=C1c2ccc3c4c(ccc(c24)C(=O)N1CCCN1CCOCC1)C(=O)N(CCCN1CCOCC1)C3=O` showed a ΔTm of 2 °C.

System: not listed separately
Assay: Selectivity index, ratio of IC50 for cytotoxicity against human MRC5 cells to IC50 for antileishmanial activity against Leishmania major (MHOM/IL/80/Friedlin) promastigotes
Type: toxicity, cell-based
Conditions: read-out: Ratio IC50

First: CC(CN1C(=O)c2ccc3c4c(ccc(c24)C1=O)C(=O)N(CC(C)N1CCN(C)CC1)C3=O)N1CCN(C)CC1 (centres undefined)
Second: CN1CCN(c2cccc(N3C(=O)c4ccc5c6c(ccc(c46)C3=O)C(=O)N(c3cccc(N4CCN(C)CC4)c3)C5=O)c2)CC1
The selectivity ratio of the first is lower: 0.17 for the first, 4.41 for the second.

`C[n+]1cccc(N2C(=O)c3ccc4c5c(ccc(c35)C2=O)C(=O)N(c2ccc[n+](C)c2)C4=O)c1` and `C[n+]1cccc2c(N3C(=O)c4ccc5c6c(ccc(c46)C3=O)C(=O)N(c3cccc4c3ccc[n+]4C)C5=O)cccc21` cannot be ordered by selectivity ratio: under 0.28 for the first, 0.15 for the second.

With `O=C1c2ccc3c4c(ccc(c24)C(=O)N1CCCN1CCOCC1)C(=O)N(CCCN1CCOCC1)C3=O` the selectivity ratio was 2.75.

System: Quadruplex DNA
Assay: Binding affinity to Trypanosoma brucei G-quadruplex telomeric DNA FEBR1T (5'-duplex GGG TTAGGG TTAGGG TTAGGG-3') assessed as stabilization by measuring change in melting temperature at 10 uM in potassium buffer by FRET melting assay
Type: nucleic-acid assay
Conditions: not given

Going from `CC(CN1C(=O)c2ccc3c4c(ccc(c24)C1=O)C(=O)N(CC(C)N1CCN(C)CC1)C3=O)N1CCN(C)CC1` (centres undefined) to `CN1CCN(c2cccc(N3C(=O)c4ccc5c6c(ccc(c46)C3=O)C(=O)N(c3cccc(N4CCN(C)CC4)c3)C5=O)c2)CC1`, the ΔTm falls from 17.5 °C to 4.6 °C.

Going from `C[n+]1cccc(N2C(=O)c3ccc4c5c(ccc(c35)C2=O)C(=O)N(c2ccc[n+](C)c2)C4=O)c1` to `C[n+]1cccc2c(N3C(=O)c4ccc5c6c(ccc(c46)C3=O)C(=O)N(c3cccc4c3ccc[n+]4C)C5=O)cccc21`, the ΔTm rises from 0.7 °C to 3 °C.

For `O=C1c2ccc3c4c(ccc(c24)C(=O)N1CCCN1CCOCC1)C(=O)N(CCCN1CCOCC1)C3=O`, the ΔTm was 3.1 °C.
